Test results reported in patent publication US8466089B2, “Pyrazole compounds, process for their production and herbicides containing them” (Ishihara Sangyo Kaisha, Ltd., priority 2008, dated 2013).
Read-outs that look alike come from different tables or passages of the source.

Key:
Type in all cases: in vivo
[1] = system: green foxtail (Setaria viridis L.); experiment: Test Example 5, foliar treatment versus Reference Compounds; settings: 5.0 to 5.5 leaf stage, 18th day after application, read-out: Growth inhibition rate (%) (18th day after application) Green foxtail
From the text: (§1) Upland field soil was put into a 1/1,000,000 hectare pot, and seeds of various plants were sown. When the respective plants reached predetermined leaf stage ((1) velvetleaf (Abutilon theophrasti MEDIC.): 3.0 to 3.5 leaf stage, (2) giant foxtail (Setaria faberi Herrm.): 4.0 to 4.5 leaf stage, (3) green foxtail (Setaria viridis L.): 5.0 to 5.5 leaf stage, and (4) corn (Zea mays L.): 4.0 to 4.3 leaf stage, a wettable powder of compound No. 2-1 of the above-mentioned present invention, a wettable powder of the above-mentioned Reference Compound 1 and a wettable powder of the above-mentioned Reference Compound 2, prepared in accordance with a conventional preparation method, were weighed so that the active ingredients became the prescribed amounts, and diluted with water in an amount corresponding to 300 liter per 1 hectare (containing 0.5 vol % of an agricultural spreader (Destiny HC: WINFIELD SOLUTIONS by LLC). The spray solutions thus prepared were applied for foliar treatment by a small sprayer.
(§2) On the 7th to 20th day after application, the state of growth of the respective plants was visually observed, and the herbicidal effect was evaluated by a growth inhibition rate (%) of 0 (equivalent to the non-treated area) to 100% (complete kill).

[2] = system: velvetleaf (Abutilon theophrasti MEDIC.); experiment: as above; settings: 3.0 to 3.5 leaf stage, 20th day after application, read-out: Growth inhibition rate (%) (20th day after application) Velvet leaf
From the text: as §1, §2

corn (Zea mays L.) = experiment: as above; settings: 4.0 to 4.3 leaf stage, 7th day after application, read-out: Growth inhibition rate (%) (7th day after application) Corn
From the text: as §1, §2

[3] = system: giant foxtail (Setaria faberi Herrm.); experiment: as above; settings: 4.0 to 4.5 leaf stage, 20th day after application, read-out: Growth inhibition rate (%) (20th day after application) Giant foxtail
From the text: as §1, §2

[4] = system: sorgo (Sorghum bicolor Moench) (var.: Lucky Sorgo); experiment: Test Example 6, soil column downward movement, sorgo bioassay; settings: 14th day after sowing
Protocol: Soil (sterilized soil:sand=3:1) was packed (4 L) into a column (9.5 cm in diameter×40 cm in height, application area: 0.007 m^2), and tap water was dropped from above by a Peristaltic pump before application of the herbicide for the purpose of maintaining the soil moisture to be uniform. Then, 10 mL of a spray solution prepared so that each agent (Compound No. 2-1, the above Reference Compounds 1 and 2) would be at a concentration corresponding to 250 g/ha was dropwise applied by a pipette. After application, water was dropped again at a rate of 400 mL/hr for about 3 hours by means of a Peristaltic pump. After the dropping, the column was left to stand for 1 day, and then the column was vertically evenly divided and seeds of sorgo (Sorghum bicolor Moench) (var.: Lucky Sorgo) were sown in a row. On the 14th day after sowing, the state of growth of the plant was visually observed at 3 cm intervals from the application point of the agent, whereby the germination and the degree of growth were evaluated by a growth inhibition rate (%) of 0 (equivalent to the non-treated area) to 100% (complete kill) to obtain the results in Table 17.
From the above results, the growth inhibition rates of Reference Compounds No. 1 and No. 2 are observed in depths deeper than that of Compound No. 2-1. […] Whereas, Compound No. 2-1 stayed at a shallow portion of soil (in a layer of from 0 to 9 cm).

## CCn1ncc(C(=O)c2ccc(S(C)(=O)=O)c(OCCOC)c2C)c1OC(C)OC(=O)OC (centres unmarked) [Compound No. 2-1, 1-(1-Ethyl-4-(3-(2-methoxyethoxy)-2-methyl-4-(methylsulfonyl)benzoyl)-1H-pyrazol-5-yloxy)ethyl methyl carbonate]
[1]
  inhibition at 7 g/ha: 70%
[2]
  inhibition at 3.5 g/ha: 80%
Corn (Zea mays L.)
  inhibition at 90 g/ha: 0%
[3]
  inhibition at 3.5 g/ha: 83%
[4]; depth 0-3 cm, read-out: Growth inhibition rate (%) against sorgo, Depth (cm) from the applied surface 0-3
  inhibition at 250 g/ha: 70%
[4]; depth 3-6 cm, read-out: Growth inhibition rate (%) against sorgo, Depth (cm) from the applied surface 3-6
  inhibition at 250 g/ha: 19%
[4]; depth 6-9 cm, read-out: Growth inhibition rate (%) against sorgo, Depth (cm) from the applied surface 6-9
  inhibition at 250 g/ha: 10%
[4]; depth 9-12 cm, read-out: Growth inhibition rate (%) against sorgo, Depth (cm) from the applied surface 9-12
  inhibition at 250 g/ha: 5%
[4]; depth 12-15 cm, read-out: Growth inhibition rate (%) against sorgo, Depth (cm) from the applied surface 12-15
  inhibition at 250 g/ha: 3%
[4]; depth 15-18 cm, read-out: Growth inhibition rate (%) against sorgo, Depth (cm) from the applied surface 15-18
  inhibition at 250 g/ha: 3%
[4]; depth 18-21 cm, read-out: Growth inhibition rate (%) against sorgo, Depth (cm) from the applied surface 18-21
  inhibition at 250 g/ha: 2%
[4]; depth 21-24 cm, read-out: Growth inhibition rate (%) against sorgo, Depth (cm) from the applied surface 21-24
  inhibition at 250 g/ha: 1%
[4]; depth 24-27 cm, read-out: Growth inhibition rate (%) against sorgo, Depth (cm) from the applied surface 24-27
  inhibition at 250 g/ha: 0%
[4]; depth 27-30 cm, read-out: Growth inhibition rate (%) against sorgo, Depth (cm) from the applied surface 27-30
  inhibition at 250 g/ha: 0%
